For the test, the target named is human CYCLIC GMP-AMP SYNTHASE (h-cGAS) (Homo sapiens, UniProt Q8N884). The test is described as follows: IFN-luciferase reporter dose response in HT-DNA-stimulated THP-1 cells; LC-MS/MS of intracellular cGAMP in RAW KO-cGAS cells expressing h-cGAS. It is filed as cell-based. A general note: Reporter assays use an easily measured gene product as a stand-in for the process of interest.

pIC50: −log10 of the molar value.

Results on one substance are retold here after publication PMC7200739, “Small molecule inhibition of human cGAS reduces total cGAMP output and cytokine expression in cells” (Scientific Reports, 2020).

Sequence of human CYCLIC GMP-AMP SYNTHASE (h-cGAS) (Q8N884 whole entry): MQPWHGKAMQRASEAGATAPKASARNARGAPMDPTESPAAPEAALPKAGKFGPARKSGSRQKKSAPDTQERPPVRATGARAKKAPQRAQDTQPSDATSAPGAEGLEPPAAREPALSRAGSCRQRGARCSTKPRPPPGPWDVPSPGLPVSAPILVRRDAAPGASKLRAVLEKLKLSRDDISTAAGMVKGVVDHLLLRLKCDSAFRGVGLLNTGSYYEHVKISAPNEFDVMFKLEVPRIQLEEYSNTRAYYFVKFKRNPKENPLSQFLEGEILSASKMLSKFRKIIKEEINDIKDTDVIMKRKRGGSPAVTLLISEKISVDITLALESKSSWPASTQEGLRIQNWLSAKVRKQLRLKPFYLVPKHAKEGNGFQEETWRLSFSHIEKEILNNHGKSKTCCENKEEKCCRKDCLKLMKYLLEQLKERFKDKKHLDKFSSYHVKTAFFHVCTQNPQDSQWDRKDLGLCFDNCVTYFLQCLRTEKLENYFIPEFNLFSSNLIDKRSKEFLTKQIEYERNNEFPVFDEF

With RU.521, the pIC50 was roughly 6.10.

As usually defined, the pIC50 is −log10 of the IC50, conventionally taken in molar units.
